# Results as given in article PMC7953584, “An Experimental Study on [^125I]I-pHLIP (Var7) for SPECT/CT Imaging of an MDA-MB-231 Triple-Negative Breast Cancer Mouse Model by Targeting the Tumor Microenvironment” (Molecular Imaging, 2021).
# Where two headings read alike, the source gives them in different places. Residues, ends and D or L forms follow the SMILES beside them.
# Experiments:
# [1] = In vitro stability in mouse serum at 37°C (radiochemical purity); type: in vitro ADME; details: 50 μL probe + 100 μL serum, paper chromatography, mean ± SD
# Description: (§1) The purity of [^125I]I-pHLIP (Var7) was determined by paper chromatography. Normal saline was used as the developing agent, and Xinhua Grade 1 chromatography paper was used as the stationary phase. An appropriate amount of [^125I]I-pHLIP (Var7) eluent was aspirated by a capillary pipette and spotted at the origin of the chromatographic filter paper. After drying, the paper was placed vertically into a test tube containing the developing agent; the unfolded chromatographic filter paper was removed, air dried, and cut at intervals of 1 cm. The radioactivity count was measured segment by segment to calculate the radiochemical purity.
# (§2) The purified [^125I]I-pHLIP (Var7) was placed at 4°C, at room temperature (25°C) in PBS buffer, and at 37°C in mouse serum. The radiochemical purity at different time points was measured, and the stability was determined. • Two hundred microliters of purified [^125I]I-pHLIP (Var7) solution was placed at 4°C and at room temperature in PBS buffer. Radiochemical purity was determined immediately after purification and at 1, 2, 4, 8, and 24 h after purification • Fifty microliters of purified [^125I]I-pHLIP (Var7) solution was mixed with 100 μL of mouse serum and placed in a 37°C water bath. Radiochemical purity was determined immediately after mixing and at 1, 2, 4, 8, and 24 h after mixing
# [2] = In vitro stability in PBS buffer (radiochemical purity); type: physicochemical; details: 24 h, paper chromatography
# Description: as §1, §2
# [3] = Biodistribution in tumor-bearing nude mice; type: in vivo; details: female, BALB/c nude, mouse, iv, 1480 kBq/200 uL, total radioactivity, ~1480 kBq/200 μL tail vein, mean ± SD, n = 3; for tissue uptake at 0.5 h: 0.5 h after injection; for tissue uptake at 1 h: 1 h after injection; for tissue uptake at 2 h: 2 h after injection; for tissue uptake at 4 h: 4 h after injection; for tissue uptake at 8 h: 8 h after injection
# Description: A mouse model bearing a human breast cancer cell line, MDA-MB-231, was established. MDA-MB-231 cells were cultured using the conventional method. Cells were collected at the logarithmic growth phase and washed once with PBS. The cells were then diluted to prepare suspensions at a concentration of approximately 1 × 10^6 cells/mL, which were temporarily stored in an ice box. Female 4-week-old BALB/c nude mice (16-20 g) were selected. MDA-MB-231 cells were inoculated subcutaneously using a disposable insulin syringe inserted into the right lateral thighs of the nude mice. The number of inoculated cells in each nude mouse was approximately 0.1 mL. The nude mice were raised under specific pathogen-free (SPF) conditions.
# Biodistribution experiments were conducted when the tumor diameter was 0.8-1.0 cm. Purified [^125I]I-pHLIP (Var7) was diluted with PBS, and a total of 15 tumor-bearing nude mice with no significant differences in tumor size were randomly divided into five cohorts. Nude mice in each cohort were injected with [^125I]I-pHLIP (Var7) at approximately 1480 kBq/200 μL through the tail vein. At 0.5, 1, 2, 4, and 8 h after injection, blood was collected from the orbital sinus. The mice were sacrificed, and tissues and organs, including the heart, liver, spleen, lung, kidney, pancreas, stomach, small intestine, bladder, thyroid, brain, bone, muscle, and tumors, were collected and weighed. The radioactive count was measured, and the results were converted to %ID/g.
# [4] = bladder, read-out: distribution in bladder
# [5] = blood, read-out: distribution in blood
# [6] = bone, read-out: distribution in bone
# [7] = brain, read-out: distribution in brain
# [8] = heart, read-out: distribution in heart
# [9] = kidney, read-out: distribution in kidney
# [10] = liver, read-out: distribution in liver
# [11] = lung, read-out: distribution in lung
# [12] = muscle, read-out: distribution in muscle
# [13] = pancreas, read-out: distribution in pancreas
# [14] = small intestine, read-out: distribution in small intestine
# [15] = spleen, read-out: distribution in spleen
# [16] = stomach, read-out: distribution in stomach
# [17] = thyroid, read-out: distribution in thyroid
# [18] = tumor (MDA-MB-231), MDA-MB-231 tumor, read-out: distribution in tumor
smiles,measurement,setting,value
CC(C)C[C@H](NC(=O)[C@H](CCC(=O)O)NC(=O)[C@H](CC(C)C)NC(=O)[C@H](CC(C)C)NC(=O)[C@H](CC(C)C)NC(=O)[C@@H](NC(=O)[C@H](CCC(=O)O)NC(=O)[C@@H](NC(=O)[C@@H]1CCCN1C(=O)[C@H](Cc1ccccc1)NC(=O)[C@H](CC(C)C)NC(=O)[C@H](Cc1c[nH]c2ccccc12)NC(=O)[C@H](CCC(=O)O)NC(=O)[C@H](CC(C)C)NC(=O)[C@H](Cc1ccc(O)c(I)c1)NC(=O)[C@H](CCCNC(=N)N)NC(=O)[C@H](C)NC(=O)[C@H](Cc1c[nH]c2ccccc12)NC(=O)[C@@H]1CCCN1C(=O)[C@H](CC(N)=O)NC(=O)[C@H](CCC(N)=O)NC(=O)[C@H](CCC(=O)O)NC(=O)[C@H](CCC(=O)O)NC(=O)[C@H](C)N)[C@@H](C)O)[C@@H](C)O)C(N)=O [[^125I]I-pHLIP (Var7)] (HELM PEPTIDE1{A.E.E.Q.N.P.W.A.R.[O=C([C@H](Cc1ccc(O)c(I)c1)N[*:1])[*:2]].L.E.W.L.F.P.T.E.T.L.L.L.E.L.[am]}$$$$V2.0),probe stability in serum (radiochemical purity),[1]; 1 h,97.8 ± 1.9%
same,probe stability in serum (radiochemical purity),[1]; 2 h,96.8 ± 1.0%
same,probe stability in serum (radiochemical purity),[1]; 4 h,94.5 ± 1.1%
same,probe stability in serum (radiochemical purity),[1]; 8 h,91.3 ± 2.6%
same,stability (radiochemical purity),[2]; 4°C,higher than 98%
same,stability (radiochemical purity),[2]; room temperature (25°C),higher than 98%
same,tissue uptake at 0.5 h,[3]; [4],3.8 ± 1.1 %ID/g
same,tissue uptake at 1 h,[3]; [4],4.3 ± 1.1 %ID/g
same,tissue uptake at 2 h,[3]; [4],2.1 ± 0.9 %ID/g
same,tissue uptake at 4 h,[3]; [4],1 ± 0.6 %ID/g
same,tissue uptake at 8 h,[3]; [4],0.5 ± 0.2 %ID/g
same,tissue uptake at 0.5 h,[3]; [5],12 ± 1.5 %ID/g
same,tissue uptake at 1 h,[3]; [5],6.5 ± 1.5 %ID/g
same,tissue uptake at 2 h,[3]; [5],2.8 ± 0.6 %ID/g
same,tissue uptake at 4 h,[3]; [5],1.2 ± 0.5 %ID/g
same,tissue uptake at 8 h,[3]; [5],0.5 ± 0.1 %ID/g
same,tissue uptake at 0.5 h,[3]; [6],2.9 ± 0.3 %ID/g
same,tissue uptake at 1 h,[3]; [6],2.8 ± 0.1 %ID/g
same,tissue uptake at 2 h,[3]; [6],1.5 ± 0.5 %ID/g
same,tissue uptake at 4 h,[3]; [6],0.7 ± 0.2 %ID/g
same,tissue uptake at 8 h,[3]; [6],0.2 ± 0.1 %ID/g
same,tissue uptake at 0.5 h,[3]; [7],0.6 ± 0.1 %ID/g
same,tissue uptake at 1 h,[3]; [7],0.5 ± 0.1 %ID/g
same,tissue uptake at 2 h,[3]; [7],0.3 ± 0.1 %ID/g
same,tissue uptake at 4 h,[3]; [7],0.1 ± 0.1 %ID/g
same,tissue uptake at 8 h,[3]; [7],0.1 ± 0.1 %ID/g
same,tissue uptake at 0.5 h,[3]; [8],4.1 ± 0.5 %ID/g
same,tissue uptake at 1 h,[3]; [8],3.9 ± 0.7 %ID/g
same,tissue uptake at 2 h,[3]; [8],2 ± 0.4 %ID/g
same,tissue uptake at 4 h,[3]; [8],1.1 ± 1.1 %ID/g
same,tissue uptake at 8 h,[3]; [8],0.5 ± 0.3 %ID/g
same,tissue uptake at 0.5 h,[3]; [9],4.2 ± 0.6 %ID/g
same,tissue uptake at 1 h,[3]; [9],5.1 ± 1.1 %ID/g
same,tissue uptake at 2 h,[3]; [9],2.3 ± 0.8 %ID/g
same,tissue uptake at 4 h,[3]; [9],1.2 ± 0.4 %ID/g
same,tissue uptake at 8 h,[3]; [9],0.5 ± 0.2 %ID/g
same,tissue uptake at 0.5 h,[3]; [10],13.9 ± 2.7 %ID/g
same,tissue uptake at 1 h,[3]; [10],8 ± 1.9 %ID/g
same,tissue uptake at 2 h,[3]; [10],4 ± 0.6 %ID/g
same,tissue uptake at 4 h,[3]; [10],1.8 ± 0.2 %ID/g
same,tissue uptake at 8 h,[3]; [10],0.7 ± 0.2 %ID/g
same,tissue uptake at 0.5 h,[3]; [11],3.4 ± 1.2 %ID/g
same,tissue uptake at 1 h,[3]; [11],2.5 ± 1 %ID/g
same,tissue uptake at 2 h,[3]; [11],1.2 ± 0.5 %ID/g
same,tissue uptake at 4 h,[3]; [11],0.5 ± 0.3 %ID/g
same,tissue uptake at 8 h,[3]; [11],0.2 ± 0.1 %ID/g
same,tissue uptake at 0.5 h,[3]; [12],1.7 ± 0.6 %ID/g
same,tissue uptake at 1 h,[3]; [12],1.4 ± 0.8 %ID/g
same,tissue uptake at 2 h,[3]; [12],0.6 ± 0.2 %ID/g
same,tissue uptake at 4 h,[3]; [12],0.2 ± 0.1 %ID/g
same,tissue uptake at 8 h,[3]; [12],0.1 ± 0.1 %ID/g
same,tissue uptake at 0.5 h,[3]; [13],3.3 ± 0.8 %ID/g
same,tissue uptake at 1 h,[3]; [13],4.1 ± 1.2 %ID/g
same,tissue uptake at 2 h,[3]; [13],2.1 ± 0.6 %ID/g
same,tissue uptake at 4 h,[3]; [13],0.9 ± 0.3 %ID/g
same,tissue uptake at 8 h,[3]; [13],0.3 ± 0.1 %ID/g
same,tissue uptake at 0.5 h,[3]; [14],3.3 ± 1.5 %ID/g
same,tissue uptake at 1 h,[3]; [14],4.2 ± 0.6 %ID/g
same,tissue uptake at 2 h,[3]; [14],2.8 ± 1 %ID/g
same,tissue uptake at 4 h,[3]; [14],1.3 ± 0.5 %ID/g
same,tissue uptake at 8 h,[3]; [14],0.4 ± 0.1 %ID/g
same,tissue uptake at 0.5 h,[3]; [15],3 ± 1.1 %ID/g
same,tissue uptake at 1 h,[3]; [15],3 ± 0.6 %ID/g
same,tissue uptake at 2 h,[3]; [15],1.4 ± 0.4 %ID/g
same,tissue uptake at 4 h,[3]; [15],0.7 ± 0.2 %ID/g
same,tissue uptake at 8 h,[3]; [15],0.3 ± 0.1 %ID/g
same,tissue uptake at 0.5 h,[3]; [16],4.7 ± 1.2 %ID/g
same,tissue uptake at 1 h,[3]; [16],5.1 ± 1.2 %ID/g
same,tissue uptake at 2 h,[3]; [16],4.3 ± 1 %ID/g
same,tissue uptake at 4 h,[3]; [16],2.2 ± 0.8 %ID/g
same,tissue uptake at 8 h,[3]; [16],0.7 ± 0.2 %ID/g
same,tissue uptake at 0.5 h,[3]; [17],4.3 ± 1.7 %ID/g
same,tissue uptake at 1 h,[3]; [17],5.6 ± 1.4 %ID/g
same,tissue uptake at 2 h,[3]; [17],3.4 ± 1 %ID/g
same,tissue uptake at 4 h,[3]; [17],1.6 ± 0.8 %ID/g
same,tissue uptake at 8 h,[3]; [17],0.8 ± 0.4 %ID/g
same,tissue uptake at 0.5 h,[3]; [18],3.6 ± 0.5 %ID/g
same,tissue uptake at 1 h,[3]; [18],6.9 ± 0.4 %ID/g
same,tissue uptake at 2 h,[3]; [18],3.6 ± 0.7 %ID/g
same,tissue uptake at 4 h,[3]; [18],2 ± 0.6 %ID/g
same,tissue uptake at 8 h,[3]; [18],1 ± 0.4 %ID/g
